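Dose response: 5 concentrations. Exposure: 48 h. Format: 96-well plates. Endpoint: linear interpolation; highest concentration if not reached. The concentration for 50% growth inhibition is given as GI50.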 Calls of active or inactive are those of the source. Rule as the data show it: active = GI50 up to about 1.1 µM and inactive = higher. A value given as a limit tells only on which side of the number the result lay.

Consider ten compounds from ChEMBL document CHEMBL1201862, “PubChem BioAssay data set” (2004).

Test systems include DU-145; RXF 393; A498; HCT-15; OVCAR-3; UACC-62; MDA-MB-435; SF-295; MCF7; SN12C; SR; MDA-MB-231; HL-60; OVCAR-4; K562; MDA-N; UACC-257; UO-31; SF-539; NCI-H23.
Common to all, as to experiment: NCI tumour cell line growth inhibition, 48 h

For the compound `O=C(/C=C/c1ccc(O)c(O)c1)OCCc1cccc2ccccc12`, the GI50 in the experiment on DU-145 was 5.48 µM (inactive); in the experiment with RXF 393, 9.44 µM (inactive); in the experiment on A498 it was 11.5 µM (inactive); with HCT-15 it was 1.28 µM; in the experiment on OVCAR-3, 2.32 µM (inactive); in the experiment with UACC-62 it was 4.27 µM (inactive). In addition, the GI50 is 2.02 µM (inactive) in the experiment with MDA-MB-435; 5.26 µM (inactive) in the experiment on SF-295; 7.31 µM (inactive) with MCF7; 2.56 µM (inactive) in the experiment with SN12C; 0.841 µM (active) in the experiment on SR; 2.33 µM (inactive) in the experiment with MDA-MB-231. Further, the GI50 with HL-60 is 1.38 µM (inactive); in the experiment with OVCAR-4, 10.7 µM (inactive); with K562 it was 2.77 µM (inactive); with MDA-N, 1.87 µM (inactive); in the experiment on UACC-257, 11.1 µM (inactive); in the experiment on UO-31, 4.21 µM (inactive). The GI50 with SF-539 was 4.79 µM (inactive); with NCI-H23 it was 3.72 µM (inactive).
As to `O=C1/C(=C/c2ccccc2)CN(C(=O)CCN2CCOCC2)C/C1=C\c1ccccc1`, the GI50 in the experiment with DU-145 was 16 µM (inactive); with RXF 393, 4.38 µM (inactive); with A498, 12.9 µM (inactive); with HCT-15, 2.14 µM; with OVCAR-3 it was 3.91 µM (inactive); in the experiment on UACC-62 it was 1.88 µM (inactive). In addition, the GI50 with MDA-MB-435 was 1.9 µM (inactive); in the experiment with SF-295, 2.42 µM (inactive); with MCF7 it was 1.95 µM (inactive); in the experiment on SN12C it was 2.18 µM (inactive); in the experiment on SR, 1.06 µM (active); in the experiment on MDA-MB-231 it was 3.47 µM (inactive). Also, the GI50 in the experiment on HL-60 is 1.32 µM (inactive); in the experiment with OVCAR-4, 2.94 µM (inactive); in the experiment on K562, 0.388 µM (active); in the experiment with MDA-N it was 2.06 µM (inactive); in the experiment on UACC-257, 2.13 µM (inactive); with UO-31 it was 8.97 µM (inactive). For the same compound, the GI50 in the experiment on SF-539 is 2.06 µM (inactive); in the experiment with NCI-H23, 2.55 µM (inactive).
`Cc1cccc2c1c(=O)c1c(O)cc3c(c1n2C)C=CC(C)(C)O3`: the GI50 with DU-145 was > 100 µM (inactive); in the experiment on RXF 393 it was > 100 µM (inactive); in the experiment on A498 it was > 100 µM (inactive); with HCT-15, > 100 µM; in the experiment with OVCAR-3 it was > 100 µM (inactive); in the experiment with UACC-62, > 100 µM (inactive). Also, the GI50 in the experiment on MDA-MB-435, with SF-295, in the experiment on MCF7, in the experiment with SN12C, with SR and in the experiment with MDA-MB-231 was > 100 µM (inactive) throughout. Besides, the GI50 in the experiment on HL-60 is > 100 µM (inactive); in the experiment on OVCAR-4, > 100 µM (inactive); in the experiment with K562, 18.1 µM (inactive); with MDA-N, > 100 µM (inactive); in the experiment with UACC-257 it was > 100 µM (inactive); in the experiment on SF-539, > 100 µM (inactive). Also, the GI50 in the experiment with NCI-H23 is > 100 µM (inactive).
As to `O=C(Cl)C1=C(c2ccccc2)C1c1ccccc1` (stereo not given), the GI50 was > 100 µM (inactive) in the experiment with DU-145; > 100 µM (inactive) in the experiment on RXF 393; > 100 µM (inactive) with A498; > 100 µM in the experiment on HCT-15; > 100 µM (inactive) in the experiment on OVCAR-3; > 100 µM (inactive) with UACC-62. Moreover, the GI50 in the experiment on MDA-MB-435, in the experiment on SF-295, in the experiment with MCF7, with SN12C, with SR and with MDA-MB-231 was > 100 µM (inactive) each time. The GI50 in the experiment on HL-60, in the experiment with OVCAR-4, with K562, in the experiment on MDA-N, in the experiment with UACC-257 and in the experiment on SF-539 was > 100 µM (inactive) in each case. Further, the GI50 with NCI-H23 is > 100 µM (inactive).
Turning to `CC1OC(OCC2OC(Oc3ccc(C4CC(=O)c5c(O)cc(O)cc5O4)cc3O)C(O)C(O)C2O)C(O)C(O)C1O` (stereo not given), the GI50 was > 100 µM (inactive) in the experiment with DU-145; > 100 µM (inactive) in the experiment with RXF 393; > 100 µM (inactive) in the experiment with A498; > 100 µM in the experiment with HCT-15; > 100 µM (inactive) with OVCAR-3; > 100 µM (inactive) with UACC-62. Also, the GI50 in the experiment with MDA-MB-435, with SF-295, with MCF7, with SN12C, in the experiment on SR and in the experiment with MDA-MB-231 was > 100 µM (inactive) each time. For the same compound, the GI50 with HL-60, in the experiment on OVCAR-4, in the experiment with K562, in the experiment on MDA-N, in the experiment with UACC-257 and with UO-31 was > 100 µM (inactive) in each case. Also, the GI50 with SF-539 and in the experiment with NCI-H23 was > 100 µM (inactive) each time.
Regarding `COc1cc(C2c3cc4c(cc3OC(O)C2C)OCO4)cc(OC)c1O` (stereo not given), the GI50 in the experiment with DU-145 is 23.5 µM (inactive); with RXF 393, 7.35 µM (inactive); in the experiment on A498 it was 23 µM (inactive); in the experiment on HCT-15 it was 5.43 µM; with OVCAR-3 it was 4.24 µM (inactive); with UACC-62 it was 3.49 µM (inactive). Also, the GI50 is 1.95 µM (inactive) in the experiment with MDA-MB-435; 3.92 µM (inactive) with SF-295; 4.4 µM (inactive) in the experiment with MCF7; 11.8 µM (inactive) in the experiment on SN12C; 2.9 µM (inactive) in the experiment with SR; 10.1 µM (inactive) in the experiment on MDA-MB-231. Also, the GI50 with HL-60 is 2.92 µM (inactive); with OVCAR-4, 35.1 µM (inactive); in the experiment with K562, 3.04 µM (inactive); with MDA-N, 1.84 µM (inactive); with UACC-257 it was 48.5 µM (inactive); in the experiment with UO-31, 21.3 µM (inactive). In addition, the GI50 is 6.28 µM (inactive) in the experiment with SF-539 and 28.8 µM (inactive) in the experiment with NCI-H23.
`CN(C)c1ccc(C(=NN)c2ccc(N(C)C)cc2)cc1`: the GI50 was 2.2 µM (inactive) with DU-145; 1.98 µM (inactive) in the experiment with RXF 393; 4.93 µM (inactive) in the experiment with A498; 0.229 µM in the experiment on HCT-15; 0.798 µM (active) with OVCAR-3; 0.506 µM (active) in the experiment on UACC-62. Besides, the GI50 in the experiment on MDA-MB-435 was 0.0416 µM (active); in the experiment on SF-295, 0.449 µM (active); in the experiment on MCF7 it was 0.573 µM (active); in the experiment on SN12C it was 2.56 µM (inactive); with SR, 0.231 µM (active); with MDA-MB-231, 0.526 µM (active). Besides, the GI50 with HL-60 was 0.322 µM (active); in the experiment with OVCAR-4 it was 9.62 µM (inactive); with K562, 0.229 µM (active); in the experiment with MDA-N, 0.0818 µM (active); in the experiment on UACC-257 it was 0.203 µM (active); with UO-31 it was 6.49 µM (inactive). Also, the GI50 in the experiment with NCI-H23 is 1.46 µM (inactive).
As to `O=C1NC2(CCCCC2)N=C2C(Cl)CCCC12Cl` (stereo not given), the GI50 in the experiment with DU-145 was > 100 µM (inactive); in the experiment with RXF 393, > 100 µM (inactive); with A498, > 100 µM (inactive); with HCT-15, > 100 µM; in the experiment with OVCAR-3, > 100 µM (inactive); in the experiment on UACC-62 it was > 100 µM (inactive). Moreover, the GI50 with MDA-MB-435, with SF-295, with MCF7, with SN12C, in the experiment on SR and in the experiment with MDA-MB-231 was > 100 µM (inactive) throughout. Also, the GI50 in the experiment with HL-60, with OVCAR-4, with K562, in the experiment on MDA-N, in the experiment on UO-31 and in the experiment on SF-539 was > 100 µM (inactive) each time. The GI50 in the experiment on NCI-H23 was > 100 µM (inactive).
As to `CN1CCN(c2ccc3[nH]c(-c4ccc5[nH]c(-c6ccc(N(C)CCCl)cc6)nc5c4)nc3c2)CC1`, the GI50 was 0.183 µM (active) in the experiment on DU-145; 0.128 µM (active) with RXF 393; 2.56 µM (inactive) in the experiment with A498; 12.6 µM in the experiment with HCT-15; 0.15 µM (active) with UACC-62; 0.144 µM (active) with MDA-MB-435. Further, the GI50 in the experiment on SF-295 was 1.76 µM (inactive); in the experiment on MCF7, < 0.01 µM (active); in the experiment with SN12C, 0.0461 µM (active); with SR, 0.0301 µM (active); with MDA-MB-231, 9.64 µM (inactive); with HL-60, < 0.01 µM (active). Moreover, the GI50 with OVCAR-4 was 0.305 µM (active); in the experiment on K562, 0.191 µM (active); in the experiment on MDA-N, 0.226 µM (active); in the experiment on UACC-257 it was 1.66 µM (inactive); in the experiment on UO-31, 18.7 µM (inactive); with SF-539 it was 0.109 µM (active). Further, in the experiment with NCI-H23, the GI50 is 0.25 µM (active).
`O=[N+]([O-])c1cc2oc(COc3ccccc3)nc2cc1Cl`: the GI50 in the experiment on DU-145 is 32.3 µM (inactive); in the experiment on RXF 393 it was 22.1 µM (inactive); with A498, 33.1 µM (inactive); in the experiment on HCT-15, 18.7 µM; with OVCAR-3, 17.9 µM (inactive); with UACC-62 it was 17.1 µM (inactive). Moreover, the GI50 is 23.6 µM (inactive) with MDA-MB-435; 17.4 µM (inactive) with SF-295; 23.8 µM (inactive) with MCF7; 24.7 µM (inactive) with SN12C; 29.4 µM (inactive) in the experiment on SR; 30.5 µM (inactive) in the experiment on MDA-MB-231. Also, the GI50 in the experiment on HL-60 was 38.1 µM (inactive); with OVCAR-4, 34.9 µM (inactive); with K562, 40 µM (inactive); with MDA-N, 25.9 µM (inactive); in the experiment on UACC-257, 22.1 µM (inactive); with UO-31, 27.2 µM (inactive). The GI50 in the experiment with SF-539 was 19.1 µM (inactive); in the experiment on NCI-H23, 17.1 µM (inactive).
